Values quoted from earlier work, collected in patent US11826492B2, “Intratumoral drug delivery materials and methods for treating breast cancer” (BIOTRONIK AG, priority 2016, dated 2023).
Read-outs that look alike come from different tables or passages of the source.

Settings: Porcine Coronary Arteries

| Structure (SMILES) | Normalized Uptake (ng drug/mg tissue/μg drug on balloon) (3 days) [ng/mg/µg] | Normalized Uptake (ng drug/mg tissue/μg drug on balloon) (7 days) [ng/mg/µg] |
| --- | --- | --- |
| CO[C@H]1C[C@@H]2CC[C@@H](C)[C@@](O)(O2)C(=O)C(=O)N2CCCC[C@H]2C(=O)O[C@H]([C@H](C)C[C@@H]2CC[C@@H](OCCO)[C@H](OC)C2)CC(=O)[C@H](C)/C=C(\C)[C@@H](O)[C@@H](OC)C(=O)[C@H](C)C[C@H](C)/C=C/C=C/C=C/1C [US 2014/0046254 Everolimus, Everolimus] | 0.02 | – |
| CO[C@H]1C[C@@H]2CC[C@@H](C)[C@@](O)(O2)C(=O)C(=O)N2CCCC[C@H]2C(=O)O[C@H]([C@H](C)C[C@@H]2CC[C@H](n3cnnn3)[C@H](OC)C2)CC(=O)[C@H](C)/C=C(\C)[C@@H](O)[C@@H](OC)C(=O)[C@H](C)C[C@H](C)/C=C/C=C/C=C/1C [US 2014/0046254 Zotarolimus, Zotarolimus] | – | 0.04 |
